These results are taken from patent US20240116910A1, “Heterocycles as WIP1 Inhibitors” (PMV Pharmaceuticals, Inc., priority 2022, published 2024).

As usually defined, the IC50 is the concentration that gives 50% inhibition.

recombinant His-tag Wip1(2-420) protein (amino acids #2-420), sequence (O15297 2-420): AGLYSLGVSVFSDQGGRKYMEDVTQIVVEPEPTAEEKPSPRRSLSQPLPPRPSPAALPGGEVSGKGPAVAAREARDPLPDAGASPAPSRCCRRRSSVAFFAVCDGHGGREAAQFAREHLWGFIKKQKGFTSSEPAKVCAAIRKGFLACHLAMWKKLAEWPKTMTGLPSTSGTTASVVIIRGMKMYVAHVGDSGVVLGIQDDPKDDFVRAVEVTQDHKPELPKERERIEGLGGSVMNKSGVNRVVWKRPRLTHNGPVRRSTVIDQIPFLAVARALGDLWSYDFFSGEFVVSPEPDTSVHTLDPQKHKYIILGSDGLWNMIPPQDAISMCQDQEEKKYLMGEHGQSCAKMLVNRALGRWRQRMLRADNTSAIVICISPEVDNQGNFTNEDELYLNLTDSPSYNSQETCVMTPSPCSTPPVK

This assay addresses recombinant His-tag Wip1(2-420) protein (amino acids #2-420) (Homo sapiens (Human), UniProt O15297). The experiment in a line: Wip1(2-420) phosphatase enzyme FDP assay. To be noted: fluorescein diphosphate (FDP) substrate, RT 2 hours, fluorescence Ex485/Em535; read-out: WIP1 (Truncated 2-420) FDP Assay: IC50. In kind it is biochemical.
As for `Cc1cc(NC(=O)[C@@H](CCC(C)(C)C)NC(=O)c2ccc([C@H](C)Nc3cc(Cl)cnc3C)s2)ccn1` [Compound 145, (2R)-2-({5-[(1S)-1-[(5-chloro-2-methylpyridin-3-yl)amino]ethyl]thiophen-2-yl}formamido)-5,5-dimethyl-N-(2-methylpyridin-4-yl)hexanamide], the IC50 came to 1420 nM.

As to `Cc1ncc(Cl)cc1N[C@@H](C)c1ccc(C(=O)N[C@@H](CC2CCCC2)C(=O)NC2CCC2)s1` [Compound 87, (2S)-2-({5-[(1S)-1-[(5-chloro-2-methylpyridin-3-yl)amino]ethyl]thiophen-2-yl}formamido)-N-cyclobutyl-3-cyclopentylpropanamide], the IC50 turned out to be 5 nM.

For `Cc1ncc(Cl)cc1N[C@@H](C)c1ccc(C(=O)N[C@@H](CC2CCCC2)C(=O)NC23CCC(CC2)CC3)s1` [Compound 257, (2S)-N-{bicyclo[2.2.2]octan-1-yl}-2-({5-[(1S)-1-[(5-chloro-2-methylpyridin-3-yl)amino]ethyl]thiophen-2-yl}formamido)-3-cyclopentylpropanamide], the IC50 was 8 nM.

In the case of `C[C@H](c1ccc(C(=O)N[C@@H](CC2CCCC2)C(=O)NC2CC2)s1)N(C)c1cncc(Cl)c1` [Compound 90, (2S)-2-({5-[(1R)-1-[(5-chloropyridin-3-yl)(methyl)amino]ethyl]thiophen-2-yl}formamido)-3-cyclopentyl-N-cyclopropylpropanamide], the IC50 worked out at 11 nM.

In the case of `Cc1ncc(Cl)cc1N[C@@H](C)c1ccc(C(=O)N[C@@H](CC2CCCC2)C(=O)Nc2ccc3c(c2)N(C)CCC3)s1` [Compound 167, (2S)-2-({5-[(1S)-1-[(5-chloro-2-methylpyridin-3-yl)amino]ethyl]thiophen-2-yl}formamido)-3-cyclopentyl-N-(1-methyl-1,2,3,4-tetrahydroquinolin-7-yl)propanamide], the IC50 worked out at 11 nM.

As to `Cc1ncc(Cl)cc1N[C@H](Cc1ccc(F)cc1)c1ccc(C(=O)N[C@@H](CC2CCCC2)C(=O)NC2CC2)s1` [Compound 222, (2S)-2-({5-[(1R)-1-[(5-chloro-2-methylpyridin-3-yl)amino]-2-(4-fluorophenyl)ethyl]thiophen-2-yl}formamido)-3-cyclopentyl-N-cyclopropylpropanamide], the IC50 came out at 68 nM.

`Cc1ncc(Cl)cc1NC(Cn1cccn1)c1ccc(C(=O)N[C@@H](CC2CCCC2)C(=O)NC2CC2)s1` (stereo partly drawn) [Compound 191, (2S)-2-[(5-{1-[(5-chloro-2-methylpyridin-3-yl)amino]-2-(1H-pyrazol-1-yl)ethyl}thiophen-2-yl)formamido]-3-cyclopentyl-N-cyclopropylpropanamide]: the IC50 was 13 nM.

Turning to `C[C@H](Nc1cc(Cl)cnc1C(=O)O)c1ccc(C(=O)N[C@@H](CC2CCCC2)C(=O)NC2CC2)s1` [Compound 269, 5-chloro-3-{[(1S)-1-(5-{[(1S)-2-cyclopentyl-1-(cyclopropylcarbamoyl)ethyl]carbamoyl}thiophen-2-yl)ethyl]amino}pyridine-2-carboxylic acid], the IC50 came to 14 nM.

For `Cc1ncc(Cl)cc1N[C@@H](C)c1ccc(C(=O)N[C@@H](C(=O)NC23CC(C2)C3)C(C)(C)C)s1` [Compound 247, (2R)-N-{bicyclo[1.1.1]pentan-1-yl}-2-({5-[(1S)-1-[(5-chloro-2-methylpyridin-3-yl)amino]ethyl]thiophen-2-yl}formamido)-3,3-dimethylbutanamide], the IC50 is above 10000 nM.

With `Cc1ncc(Cl)cc1N[C@@H](C)c1ccc(C(=O)N[C@H](CC23CCC(CC2)CC3)C(=O)NC2CC2)s1` [Compound 255, (2R)-3-{bicyclo[2.2.2]octan-1-yl}-2-({5-[(1S)-1-[(5-chloro-2-methylpyridin-3-yl)amino]ethyl]thiophen-2-yl}formamido)-N-cyclopropylpropanamide], the IC50 amounted to 4870 nM.

In the case of `Cc1ncc(Cl)cc1N[C@@H](C)c1ccc(C(=O)N[C@H](C(=O)NC2CC2)C(C)(C)C)s1` [Compound 235, (2S)-2-({5-[(1S)-1-[(5-chloro-2-methylpyridin-3-yl)amino]ethyl]thiophen-2-yl}formamido)-N-cyclopropyl-3,3-dimethylbutanamide], the IC50 stood at 5660 nM.

As to `COc1ccc(Cl)cc1N[C@@H](C)c1ccc(C(=O)N[C@@H](CC2CCCC2)C(=O)NC2CC2)s1` [Compound 254, (2S)-2-({5-[(1S)-1-[(5-chloro-2-methoxyphenyl)amino]ethyl]thiophen-2-yl}formamido)-3-cyclopentyl-N-cyclopropylpropanamide], the IC50 is 11 nM.

For `C[C@@H](Nc1cc(Cl)cnc1C(N)=O)c1ccc(C(=O)N[C@@H](CC2CCCC2)C(=O)Nc2cnn(C)c2)s1` [Compound 137, 5-chloro-3-{[(1R)-1-(5-{[(1S)-2-cyclopentyl-1-[(1-methyl-1H-pyrazol-4-yl)carbamoyl]ethyl]carbamoyl}thiophen-2-yl)ethyl]amino}pyridine-2-carboxamide], the IC50 was 54 nM.

With `Cc1ncc(Cl)cc1N[C@@H](C)c1ccc(C(=O)N[C@@H](CC2CCCC2)C(=O)NCC(=O)O)s1` [Compound 93, 2-[(2S)-2-({5-[(1S)-1-[(5-chloro-2-methylpyridin-3-yl)amino]ethyl]thiophen-2-yl}formamido)-3-cyclopentylpropanamido]acetic acid], the IC50 came to 208 nM.

As for `CC(Nc1cc(Cl)cnc1C(F)(F)F)c1ccc(C(=O)N[C@@H](CC2CCCC2)C(=O)NC2CC2)s1` (stereo partly drawn) [Compound 202, (2S)-2-{[5-(1-{[5-chloro-2-(trifluoromethyl)pyridin-3-yl]amino}ethyl)thiophen-2-yl]formamido}-3-cyclopentyl-N-cyclopropylpropanamide], the IC50 came to 19 nM.

Take `Cc1ncc(Cl)cc1N[C@H](C)c1ccc(C(=O)N[C@@H](CC2CCCC2)C(=O)NC2CC2)s1` [Compound 9, 5-[(1R)-1-[(5-chloro-2-methyl-3-pyridyl)amino]ethyl]-N-[(1S)-1-(cyclopentylmethyl)-2-(cyclopropylamino)-2-oxo-ethyl]thiophene-2-carboxamide]: the IC50 amounted to 411 nM.

For the molecule `COc1ccc(-c2ncc(Cl)cc2N[C@H](C)c2ccc(C(=O)N[C@@H](CC3CCCC3)C(=O)NC3CC3)s2)cc1` [Compound 238, (2S)-2-({5-[(1R)-1-{[5-chloro-2-(4-methoxyphenyl)pyridin-3-yl]amino}ethyl]thiophen-2-yl}formamido)-3-cyclopentyl-N-cyclopropylpropanamide], the IC50 was determined as 188 nM.

In the case of `COCCOCCNC(=O)[C@H](CC1CCCC1)NC(=O)c1ccc([C@H](C)Nc2cc(Cl)cnc2C)s1` [Compound 204, (2S)-2-({5-[(1S)-1-[(5-chloro-2-methylpyridin-3-yl)amino]ethyl]thiophen-2-yl}formamido)-3-cyclopentyl-N-[2-(2-methoxyethoxy)ethyl]propanamide], the IC50 is 102 nM.

Turning to `CNC(=O)[C@H](CC1CCCCC1)NC(=O)c1ccc([C@H](C)Nc2cc(Cl)cnc2C)s1` [Compound 265, (2S)-2-({5-[(1S)-1-[(5-chloro-2-methylpyridin-3-yl)amino]ethyl]thiophen-2-yl}formamido)-3-cyclohexyl-N-methylpropanamide], the IC50 came out at 8 nM.

Regarding `COc1ncc(Cl)cc1N[C@H](C)c1ccc(C(=O)N[C@@H](CC2CCCC2)C(=O)NC23CC(C2)C3)s1` [Compound 61, (2S)-N-{bicyclo[1.1.1]pentan-1-yl}-2-({5-[(1R)-1-[(5-chloro-2-methoxypyridin-3-yl)amino]ethyl]thiophen-2-yl}formamido)-3-cyclopentylpropanamide], the IC50 is 500 nM.

Consider `C[C@@H](Nc1cc(Cl)cnc1C(C)(C)O)c1ccc(C(=O)N[C@@H](CC2CCCC2)C(=O)NC2CC2)s1` [Compound 193, (2S)-2-({5-[(1R)-1-{[5-chloro-2-(2-hydroxypropan-2-yl)pyridin-3-yl]amino}ethyl]thiophen-2-yl}formamido)-3-cyclopentyl-N-cyclopropylpropanamide], for which the IC50 was determined as 316 nM.

As for `Cc1ncc(Cl)cc1N[C@@H](C)c1ccc(C(=O)N[C@@H](CC2CCCC2)C(=O)NC2CC3(COC3)C2)s1` [Compound 237, (2S)-2-({5-[(1S)-1-[(5-chloro-2-methylpyridin-3-yl)amino]ethyl]thiophen-2-yl}formamido)-3-cyclopentyl-N-{2-oxaspiro[3.3]heptan-6-yl}propanamide], the IC50 stood at 8 nM.

As for `C[C@H](Nc1cc(Cl)cnc1C(C)(C)O)c1ccc(C(=O)N[C@@H](CC2CCCC2)C(=O)NC2CC2)s1` [Compound 194, (2S)-2-({5-[(1S)-1-{[5-chloro-2-(2-hydroxypropan-2-yl)pyridin-3-yl]amino}ethyl]thiophen-2-yl}formamido)-3-cyclopentyl-N-cyclopropylpropanamide], the IC50 was 6 nM.

Regarding `C[C@H](Nc1cc(Cl)cnc1C(=O)N(C)C)c1ccc(C(=O)N[C@@H](CC2CCCC2)C(=O)NC2CC2)s1` [Compound 205, 5-chloro-3-{[(1S)-1-(5-{[(1S)-2-cyclopentyl-1-(cyclopropylcarbamoyl)ethyl]carbamoyl}thiophen-2-yl)ethyl]amino}-N,N-dimethylpyridine-2-carboxamide], the IC50 amounted to 29 nM.

As for `COCC(Nc1cc(Cl)cnc1C)c1ccc(C(=O)N[C@@H](CC2CCCC2)C(=O)NC2CC2)s1` (stereo partly drawn) [Compound 176, (2S)-2-[(5-{1-[(5-chloro-2-methylpyridin-3-yl)amino]-2-methoxyethyl}thiophen-2-yl)formamido]-3-cyclopentyl-N-cyclopropylpropanamide], the IC50 is 21 nM.

As to `Cc1ncc(Cl)cc1N[C@@H](C)c1ccc(C(=O)N[C@@H](CC2CCCC2)C(=O)Nc2ccnc(C(N)=O)c2)s1` [Compound 135, 4-[(2S)-2-({5-[(1S)-1-[(5-chloro-2-methylpyridin-3-yl)amino]ethyl]thiophen-2-yl}formamido)-3-cyclopentylpropanamido]pyridine-2-carboxamide], the IC50 stood at 5 nM.

Turning to `Cc1ncc(Cl)cc1N[C@H](Cc1ccccc1)c1ccc(C(=O)N[C@@H](CC2CCCC2)C(=O)NC23CC(C#N)(C2)C3)s1` [Compound 213, (2S)-2-({5-[(1R)-1-[(5-chloro-2-methylpyridin-3-yl)amino]-2-phenylethyl]thiophen-2-yl}formamido)-N-{3-cyanobicyclo[1.1.1]pentan-1-yl}-3-cyclopentylpropanamide], the IC50 was found to be 166 nM.
